Measurements: paper PMC6225126, “Inhibitory Effects of Bioassay-Guided Isolation of Anti-Glycation Components from Taraxacum coreanum and Simultaneous Quantification” (Molecules : A Journal of Synthetic Chemistry and Natural …, 2018)
≈ marks a conversion by molar mass, not a printed value. Like-named read-outs stand apart in the source and are kept apart here.

Assays:
[1] = test system: advanced glycation end-product (AGE) formation in BSA/MGO system; experiment: Inhibition of AGE formation in BSA-MGO system (fluorescence); format: biochemical, bovine; settings: BSA 1 mg/mL, 7 mM MGO, 60 °C, 2 days, mean ± SD, n = 3; for IC50: isolated compounds
Procedure: The inhibitory effect on protein glycation induced by MGO (40% aqueous solution) and the main reactive intermediate compound formed in Maillard reaction were evaluated. All test samples were dissolved in 10% DMSO. […] This mixture was incubated at 60 °C for 2 days. […] We used AG as a positive control. Three replicate samples were run for each set. The inhibitory activity was calculated using the same equation applied in BSA-glucose assay.

[2] = test system: advanced glycation end-product (AGE) formation in BSA/glucose system; experiment: Inhibition of AGE formation in BSA-glucose system (fluorescence); format: biochemical, bovine
Procedure: Inhibition of AGE formation in BSA-glucose system was determined using the spectrophotometric method described previously. All test samples were dissolved in 10% DMSO. […] This mixture was incubated at 60 °C for 2 days. […] We used AG as a positive control. Three replicate samples were run for each set. The inhibitory activity on AGE formation was calculated using the following formula: {(Ac − As)/Ac} × 100, where Ac is fluorescence of the control, and As is the fluorescence of the sample.

[3] = target: T1, α-glucosidase from Saccharomyces cerevisiae (Saccharomyces cerevisiae, UniProt P53341); experiment: biochemical; format: biochemical
T1 construct: purchased Sigma-Aldrich Chemical Company (St. Louis, MO, USA)
Procedure: Methanol (MeOH), ethanol (EtOH), Hx, DCM, EA, BuOH, and distilled water were used for extraction, fractionation, and open column chromatography. Sephadex LH-20 (25–100 μm; Pharmacia, Stockolm, Sweden), MCI CHP 20P (Supelco, St. Louis, MO, USA), and ODS gel (400–500 mesh; Waters, Milford, MA, USA) were used for open column chromatography. Dimethyl sulfoxide-d6 (DMSO-d6) and methanol-d4 (CD3OD) were used as solvents for NMR analysis. Molecular weight was determined by using ultrahigh performance liquid chromatography and high-resolution mass spectrometry (UHPLC-HRMS) coupled with electrospray ionization hybrid linear trap-quadruple-Orbitrap MS (ESI/LTQ-Orbitrap) using an Ultimate 3000 RSLC (Thermo, Darmstadt, Germany). ^1H-nuclear magnetic resonance (NMR) spectra were recorded at 600 MHz and ^13C-NMR spectra were recorded at 150 MHz on a JEOL spectrometer. The chemical shifts are expressed in parts per million (ppm) on the δ scale and as coupling constants (J) in Hertz. […] A Waters Kromasil C18 (4.6 × 250 mm, 5 μm) column was used as the separation column. HPLC-grade solvents, such as MeOH and distilled water (H2O), were purchased from J. T. Baker® (Phillipsburg, PA, USA). HPLC-grade phosphoric acid was obtained from DEAJUNG Chemical (Siheung, Gyeonggi, Korea).
This assay was performed using a 96-well microplate reader and a spectrophotometer. […] A chromogenic substance was used for quantification purposes. After the addition of mixture solution to each well, 10 mM phosphate buffer (20 µL, pH 6.8) containing 0.2 U/mL α-glucosidase was added. This mixture was incubated at 37 °C for 15 min. The reaction was stopped by adding 80 µL of 0.2 mol/L sodium carbonate solution. […] Three replicate samples were run for each set. The inhibitory activity was calculated using the equation applied in BSA-glucose assay, but absorbance was measured instead of fluorescence.

[4] = isolated compounds, BSA 10 mg/mL, 0.4 M D-fructose and D-glucose, 60 °C, 2 days, mean ± SD, n = 3, read-out: IC50 BSA/Glucose (AGE formation)
[5] = isolated compounds, 2.5 mM p-NPG, pH 6.8, 37 °C, 15 min, mean ± SD, n = 3, read-out: IC50 α-Glucosidase
[6] = isolated compounds, read-out: IC50 α-glucosidase activity
[7] = isolated compounds, 2.5 mM p-NPG, pH 6.8, 37 °C, 15 min, mean ± SD, n = 3

T1 sequence (P53341 whole entry): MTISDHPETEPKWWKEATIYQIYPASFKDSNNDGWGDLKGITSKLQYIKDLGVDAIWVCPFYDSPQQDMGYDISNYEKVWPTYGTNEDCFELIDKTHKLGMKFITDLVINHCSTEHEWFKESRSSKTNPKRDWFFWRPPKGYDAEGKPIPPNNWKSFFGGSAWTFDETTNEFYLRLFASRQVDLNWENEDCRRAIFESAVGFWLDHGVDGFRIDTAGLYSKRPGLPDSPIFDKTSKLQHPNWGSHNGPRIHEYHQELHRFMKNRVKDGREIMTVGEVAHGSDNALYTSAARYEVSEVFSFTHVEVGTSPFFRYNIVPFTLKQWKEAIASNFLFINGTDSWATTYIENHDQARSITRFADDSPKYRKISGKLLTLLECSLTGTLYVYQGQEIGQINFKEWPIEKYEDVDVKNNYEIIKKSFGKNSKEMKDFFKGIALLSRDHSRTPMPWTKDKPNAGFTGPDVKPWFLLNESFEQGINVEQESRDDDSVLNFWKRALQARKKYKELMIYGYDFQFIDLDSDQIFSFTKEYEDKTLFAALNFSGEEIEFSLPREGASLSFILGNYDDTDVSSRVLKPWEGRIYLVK

Molecule	IC50 [1]	IC50 [2, 4]	also measured
1-caffeoylglycerol [Compound 8]	152 ± 65.4 µM	307 ± 10.2 µM	IC50 [3, 5]: 2951 ± 3.94 µM; IC50 [3, 6]: 2951 ± 3.94 µM
N=C(N)NN [AMG, aminoguanidine, reference compound]	295 ± 42.7 µM	602 ± 50.4 µM	IC50 BSA/MGO (AGE formation) ([1]; extracts and fractions): 67.51 ± 5.27 mg/L (≈ 911 µM); IC50 BSA/Glucose (AGE formation) ([2]; extracts and fractions, BSA 10 mg/mL, 0.4 M D-fructose and D-glucose, 60 °C, 2 days, mean ± SD, n = 3): 218.57 ± 24.38 mg/L (≈ 2950 µM)
O=c1cc(-c2ccc(O)c(O)c2)oc2cc(OC3OC(CO)C(O)C(O)C3O)cc(O)c12 (stereo not drawn) [Compound 2, luteolin-7-glucoside]	108 ± 8.14 µM	123 ± 2.02 µM	IC50 [3]: 1460 ± 162 µM
O=C(O)/C=C/c1ccc(O)c(O)c1 [Compound 7, caffeic acid]	79.7 ± 23.4 µM	324 ± 8.29 µM	IC50 [3, 5]: 5130 ± 804 µM
O=C(/C=C/c1ccc(O)c(O)c1)O[C@@H]1C[C@](O)(C(=O)O)C[C@@H](O)[C@H]1O [Compound 10, chlorogenic acid]	138 ± 1.91 µM	–	–
chicoric acid [Compound 11]	141 ± 8.76 µM	64.7 ± 16.7 µM	–

Further lines, with some results ahead:

IC50 [1]	IC50 [2, 4]	Molecule	also measured
66.1 ± 17.1 µM	236 ± 9.11 µM	O=c1cc(-c2ccc(O)c(O)c2)oc2cc(O)cc(O)c12 [Compound 1, luteolin]	IC50 α-Glucosidase [3, 7]: no inhibitory activity
90.8 ± 21.7 µM	423 ± 18 µM	O=c1cc(-c2ccc(OC3OC(CO)C(O)C(O)C3O)c(O)c2)oc2cc(O)cc(O)c12 (stereo not drawn) [Compound 3, luteolin-4′-glucoside]	IC50 ([2]; compound 3, unit as printed in running text b17, read-out: IC50 AGE formation in BSA-glucose system): 423 ± 18 µM; IC50 [3, 6]: 598 ± 147 µM
136 ± 2.64 µM	253 µM	CC1OC(OCC2OC(Oc3cc(O)c4c(=O)cc(-c5ccc(O)c(O)c5)oc4c3)C(O)C(O)C2O)C(O)C(O)C1O (stereo not drawn) [Compound 4, luteolin-7-rutinoside]	IC50 [3, 6]: 671 ± 50.8 µM
130 ± 28.3 µM	268 ± 3.41 µM	O=c1cc(-c2cc(O)c(O)cc2OC2OCC(O)C(O)C2O)oc2cc(OC3OC(CO)C(O)C(O)C3O)cc(O)c12 (stereo not drawn) [Compound 5, isoetin-7-glucoside-2′-xyloside]	IC50 α-Glucosidase [3, 7]: no inhibitory activity
148 ± 36.3 µM	238 ± 13.8 µM	O=c1cc(-c2cc(O)c(O)cc2OC2OCC(O)C(O)C2O)oc2cc(OC3OC(CO)C(O)C(O)C3O)cc(O)c12 (stereo not drawn) [Compound 6, isoetin-7-glucoside-2′-arabinoside]	IC50 α-Glucosidase [3, 7]: no inhibitory activity
